# Test results from patent publication US6500840B2, “Quinuclidine-substituted heteroaryl moieties for treatment of disease” (Pharmacia & Upjohn Company, priority 2000, dated 2002).
# Where a name gives a salt, the structure may show the parent alone.
# Molecular target: α7 nAChR (Rattus norvegicus, UniProt Q05941)
# Assay: [3H]-MLA competition binding assay, rat brain membranes
# Conditions: Ki, inhibition of [3H]-MLA binding (3.0 to 4.0 nM), Sprague-Dawley rat whole brain minus cerebellum homogenate, 1 hour at 25° C
# Procedure: Membrane Preparation. Male Sprague-Dawley rats (300-350 g) are sacrificed by decapitation and the brains (whole brain minus cerebellum) are dissected quickly, weighed and homogenized in 9 volumes/g wet weight of ice-cold 0.32 M sucrose using a rotating pestle on setting 50 (10 up and down strokes). The homogenate is centrifuged at 1,000×g for 10 minutes at 4° C. The supernatant is collected and centrifuged at 20,000×g for 20 minutes at 4° C. The resulting pellet is resuspended to a protein concentration of 1-8 mg/mL. Aliquots of 5 mL homogenate are frozen at −80° C. until needed for the assay.
# Binding Assay. […] Filters are pre-soaked in 50 mm Tris HCl pH 7.0-0.05% polyethylenimine. The filters are rapidly washed two times with 5 mL aliquots of cold 0.9% saline and then counted for radioactivity by liquid
# Data Analysis. […] Hill coefficients were obtained using non-linear regression (GraphPad Prism sigmoidal dose-response with variable slope).
# Chain of α7 nAChR (Q05941 23-502): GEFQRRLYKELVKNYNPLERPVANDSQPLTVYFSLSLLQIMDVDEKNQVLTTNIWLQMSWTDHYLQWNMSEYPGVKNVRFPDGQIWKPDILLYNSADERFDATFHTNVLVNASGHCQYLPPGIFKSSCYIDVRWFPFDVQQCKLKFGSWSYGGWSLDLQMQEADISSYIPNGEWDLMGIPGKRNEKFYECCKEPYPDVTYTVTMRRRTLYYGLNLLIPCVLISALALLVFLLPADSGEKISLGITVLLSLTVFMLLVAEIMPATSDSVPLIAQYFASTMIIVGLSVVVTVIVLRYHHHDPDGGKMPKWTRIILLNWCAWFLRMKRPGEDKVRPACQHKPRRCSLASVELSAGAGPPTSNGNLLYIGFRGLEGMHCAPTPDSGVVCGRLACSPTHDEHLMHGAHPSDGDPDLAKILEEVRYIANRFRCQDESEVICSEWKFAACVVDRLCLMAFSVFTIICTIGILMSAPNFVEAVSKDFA
row,Structure (SMILES),Ki [nM]
1,"O=C(N[C@H]1CN2CCC1CC2)c1ncc(-c2ccccc2Cl)o1 [Example 86, N-[(3R)-1-azabicyclo[2.2.2]oct-3-yl]-5-(2-chlorophenyl)-1,3-oxazole-2-carboxamide 4-methylbenzenesulfonate]",30 to 40
2,"O=C(N[C@H]1CN2CCC1CC2)c1ccc(-c2ccc(Cl)s2)s1 [Example 15, N-[(3R)-1-Azabicyclo[2.2.2]oct-3-yl]-5′-chloro-2,2′-bithiophene-5-carboxamide Hydrochloride]",40 to 90
3,"O=C(N[C@H]1CN2CCC1CC2)c1ccc(-c2ccccc2O)s1 [Example 41, N-[(3R)-1-Azabicyclo[2.2.2]oct-3-yl]-5-(2-hydroxyphenyl)-thiophene-2-carboxamide Hydrochloride]",34
4,"COc1ccc(-c2cnc(C(=O)N[C@H]3CN4CCC3CC4)o2)cc1 [Example 82, N-[(3R)-1-azabicyclo[2.2.2]oct-3-yl]-5-(4-methoxyphenyl)-1,3-oxazole-2-carboxamide 4-methylbenzenesulfonate]",115 to 125
5,"CC1C(NC(=O)c2ccc(Br)s2)C2CCN1CC2 (mixture of isomers) [Example 158, 5-Bromo-N-(2-methyl-1-azabicyclo[2.2.2]oct-3-yl)thiophene-2-carboxamide 4-Methylbenzenesulfonate]",12 to 20
6,"O=C(N[C@H]1CN2CCC1CC2)c1ccc(-c2ccc(Cl)cc2)s1 [Example 2, N-[(3R)-1-azabicyclo[2.2.2]oct-3-yl]-5-(4-clorophenyl)-thiophene-2-carboxamide hydrochloride]",110
7,"O=C(N[C@H]1CN2CCC1CC2)c1cnc(-c2ccccc2)s1 [Example 50, N-[(3R)-1-Azabicyclo[2.2.2]oct-3-yl]-2-phenyl-1,3-thiazole-5-carboxamide Fumarate]",68 to 564
8,"O=C(N[C@H]1CN2CCC1CC2)c1ccc(-c2ccccc2[N+](=O)[O-])s1 [Example 6, N-[(3R) 1-azabicyclo[2.2.2]oct-3-yl]-5-(2-nitrophenyl)-thiophene-2-carboxamide hydrochloride]",5 to 10
9,"O=C(N[C@H]1CN2CCC1CC2)c1ncc(-c2cccc(Cl)c2)s1 [Example 99, N-[(3R)-1-azabicyclo[2.2.2]oct-3-yl]-5-(3-chlorophenyl)-1,3-thiazole-2-carboxamide 4-methylbenzenesulfonate]",310 to 325
10,"CC(C)(C)c1ccc(-c2ccc(C(=O)N[C@H]3CN4CCC3CC4)o2)cc1 [Example 140, N-[(3R)-1-azabicyclo[2.2.2]oct-3-yl]-5-(4-tert-butylphenyl)-furan-2-carboxamide 4-methylbenzenesulfonate]",35 to 65
11,"O=C(N[C@H]1CN2CCC1CC2)c1ccc(-c2ccccc2[N+](=O)[O-])o1 [Example 110, N-[(3R)-1-azabicyclo[2.2.2]oct-3-yl]-5-(2-nitrophenyl)-furan-2-carboxamide 4-methylbenzenesulfonate]",4 to 190
12,"NCc1ccc(C(=O)N[C@H]2CN3CCC2CC3)s1 [Example 17, 5-(Aminomethyl)-N-[(3R)-1-azabicyclo[2.2.2]oct-3-yl]-thiophene-2-carboxamide Dihydrochloride]",260 to 385
13,"COc1ccccc1-c1ccc(C(=O)N[C@H]2CN3CCC2CC3)o1 [Example 118, N-[(3R)-1-azabicyclo[2.2.2]oct-3-yl]-5-(2-methoxyphenyl)-furan-2-carboxamide 4-methylbenzenesulfonate]",45 to 69
14,"N#Cc1cccc(-c2cnc(C(=O)N[C@H]3CN4CCC3CC4)o2)c1 [Example 87, N-[(3R)-1-azabicyclo[2.2.2]oct-3-yl]-5-(3-cyanophenyl)-1,3-oxazole-2-carboxamide 4-methylbenzenesulfonate]",130 to 150
15,"O=C(N[C@H]1CN2CCC1CC2)c1ccc(Sc2ccc(F)cc2F)s1 [Example 34, N-[(3R)-1-azabicyclo[2.2.2]oct-3-yl]-5-(2,4-difluorophenyl-sulfanyl)-thiophene-2-carboxamide hydrochloride]",30 to 39
